This passage reports IC50 results from patent US20150191462A1, “PYRROLIDINE DERIVATIVES AND THEIR USE AS COMPLEMENT PATHWAY MODULATORS” (priority 2012, published 2015).

For the test, the target named is Recombinant human factor D (Homo sapiens, UniProt P00746). Briefly: Human Complement Factor D Assay: Method 1. In kind it is biochemical. The following applies: Factor D inhibition, 10 nM factor D, Z-Lys-thiobenzyl substrate, fluorescence readout. As to the method: Human Complement Factor D Assay: Method 1 Recombinant human factor D (expressed in E. coli and purified using standard methods) at 10 nM concentration is incubated with test compound at various concentrations for 1 hour at room temperature in 0.1 M Hepes buffer, pH 7.5, containing 1 mM MgCl2, 1 M NaCl and 0.05% CHAPS. […] The increase in fluorescence is recorded at excitation of 485 nm and emission at 535 nm in a microplate spectrofluorimeter. IC50 values are calculated from percentage of inhibition of complement factor D-activity as a function of test compound concentration.
Recombinant human factor D, sequence (P00746 26-253): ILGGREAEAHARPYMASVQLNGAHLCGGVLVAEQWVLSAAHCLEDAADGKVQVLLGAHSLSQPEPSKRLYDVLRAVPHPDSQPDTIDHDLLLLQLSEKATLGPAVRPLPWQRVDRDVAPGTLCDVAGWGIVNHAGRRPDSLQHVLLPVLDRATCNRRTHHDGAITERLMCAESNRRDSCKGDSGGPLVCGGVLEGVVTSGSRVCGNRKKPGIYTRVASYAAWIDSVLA

As usually defined, the IC50 is the point on the concentration scale where inhibition reaches its midpoint. For `NC(=O)c1nn(CC(=O)N2C3CC(C3)C2C(=O)Nc2cccc(Br)n2)c2ccccc12` (centres unmarked) [Example 28, N-(6-bromopyridin-2-yl)-2-(2-(3-carbamoyl-1H-indazol-1-yl)acetyl)-2-azabicyclo[2.1.1]hexane-3-carboxamide], the concentration for half-maximal inhibition (IC50) amounted to 120 nM. On to `Cc1cc2c(C(N)=O)nn(CC(=O)N3[C@@H]4C[C@@H]4C[C@H]3C(=O)Nc3cccc(C(F)(F)F)n3)c2c(C)n1` [Example 29, 5,7-dimethyl-1-(2-oxo-2-((1R,3S,5R)-3-((6-(trifluoromethyl)pyridin-2-yl)carbamoyl)-2-azabicyclo[3.1.0]hexan-2-yl)ethyl)-1H-pyrazolo[3,4-c]pyridine-3-carboxamide], for which the half-maximal inhibitory concentration (IC50) came to 6 nM. In the case of `Cc1cc2c(C(N)=O)nn(CC(=O)N3[C@@H]4C[C@@H]4C[C@H]3C(=O)Nc3cncc(C(F)(F)F)n3)c2c(C)n1` [Example 30, 5,7-dimethyl-1-(2-oxo-2-((1R,3S,5R)-3-((6-(trifluoromethyl)pyrazin-2-yl)carbamoyl)-2-azabicyclo[3.1.0]hexan-2-yl)ethyl)-1H-pyrazolo[3,4-c]pyridine-3-carboxamide] it was 80 nM; in that of `NC(=O)n1cc(NC(=O)N2[C@@H]3C[C@@H]3C[C@H]2C(=O)Nc2cncc(Br)n2)c2ccccc21` [Example 31, (1R,3S,5R)-2-Aza-bicyclo[3.1.0]hexane-2,3-dicarboxylic acid 3-[(6-bromo-pyrazin-2-yl)-amide]2-[(1-carbamoyl-1H-indol-3-yl)-amide]], 4 nM. In the case of `Cc1ncc(NC(=O)[C@@H]2C[C@H]3C[C@H]3N2C(=O)Nc2cn(C(N)=O)c3ccccc23)nc1Br` [Example 32, (1R,3S,5R)-2-Aza-bicyclo[3.1.0]hexane-2,3-dicarboxylic acid 3-[(6-bromo-5-methyl-pyrazin-2-yl)-amide] 2-[(1-carbamoyl-1H-indol-3-yl)-amide]] it was 5 nM; in that of `C[C@@]1(F)C[C@@H](C(=O)Nc2cccc(Br)n2)N(C(=O)Nc2cn(C(N)=O)c3ccccc23)C1` [Example 34, (2S,4R)-4-Fluoro-4-methyl-pyrrolidine-1,2-dicarboxylic acid 2-[(6-bromo-pyridin-2-yl)-amide] 1-[(1-carbamoyl-1H-indol-3-yl)-amide]], 14 nM. With `NC(=O)n1cc(NC(=O)N2CCC[C@H]2C(=O)Nc2cccc(Br)n2)c2ccccc21` [Example 35, (S)-Pyrrolidine-1,2-dicarboxylic acid 2-[(6-bromo-pyridin-2-yl)-amide]-1-[(1-carbamoyl-1H-indol-3-yl)-amide]], the IC50 came out at 20 nM. In the case of `NC(=O)n1cc(NC(=O)N2[C@@H]3C[C@@H]3C[C@H]2C(=O)Nc2cncc(C(F)(F)F)n2)c2ccccc21` [Example 36, (1R,3S,5R)-2-Aza-bicyclo[3.1.0]hexane-2,3-dicarboxylic acid 2-[(1-carbamoyl-1H-indol-3-yl)-amide] 3-[(6-trifluoromethyl-pyrazin-2-yl)-amide]] it was 55 nM; in that of `C[C@@]12C[C@@H](C(=O)Nc3cccc(Br)n3)N(C(=O)Nc3cn(C(N)=O)c4ccccc34)[C@@H]1C2` [Example 37, (1R,3S,5R)-5-Methyl-2-aza-bicyclo[3.1.0]hexane-2,3-dicarboxylic acid 3-[(6-bromo-pyridin-2-yl)-amide] 2-[(1-carbamoyl-1H-indol-3-yl)-amide]], 8 nM. As for `NC(=O)n1cc(NC(=O)N2C[C@H](F)[C@H](F)[C@H]2C(=O)Nc2cccc(Br)n2)c2ccccc21` [Example 38, (2R,3R,4S)-N2-(6-bromopyridin-2-yl)-N1-(1-carbamoyl-1H-indol-3-yl)-3,4-difluoropyrrolidine-1,2-dicarboxamide], the IC50 worked out at 10 nM. Turning to `NC(=O)n1cc(NC(=O)N2CCS[C@H]2C(=O)Nc2cccc(Br)n2)c2ccccc21` [Example 39, (S)-N2-(6-bromopyridin-2-yl)-N3-(1-carbamoyl-1H-indol-3-yl)thiazolidine-2,3-dicarboxamide], the IC50 was determined as 20 nM.
